Experimental findings from US20240116892A1, “HETEROCYCLIC AMIDE AND UREA COMPOUNDS AS JAK2 INHIBITORS” (Ajax Therapeutics, Inc., priority 2022, published 2024) are described below.

The target in this assay is JAK2 (JH1 domain-catalytic, Y1007F, Y1008F) kinase (Homo sapiens (Human), UniProt O60674, Y1007F/Y1008F). As to the kind of experiment: JAK2 JH1 Domain Binding Assay. Particulars: qPCR readout. An outline of the steps:
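JH1 catalytic domain (Y1007F/Y1008F) expressed as NFkB DNA-binding-domain fusion in HEK293 cells, DNA-tagged. Competition with immobilized biotinylated ligand on streptavidin beads, 1 h at RT in PBS/Tween/BSA/DTT; bound kinase eluted with free ligand and quantified by qPCR.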
(In qPCR the cycle at which signal appears reflects the starting amount.)

Some results are limits rather than exact numbers.

Sequence of JAK2 (JH1 domain-catalytic, Y1007F, Y1008F) kinase (O60674 849-1124 Y1007F/Y1008F): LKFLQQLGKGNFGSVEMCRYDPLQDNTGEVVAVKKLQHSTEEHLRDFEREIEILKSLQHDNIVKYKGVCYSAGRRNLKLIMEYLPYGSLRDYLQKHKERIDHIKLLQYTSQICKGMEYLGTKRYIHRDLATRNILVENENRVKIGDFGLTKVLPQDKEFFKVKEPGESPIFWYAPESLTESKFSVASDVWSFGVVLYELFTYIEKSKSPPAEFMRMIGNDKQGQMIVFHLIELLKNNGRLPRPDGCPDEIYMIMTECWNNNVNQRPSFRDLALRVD

In the case of `CC(=O)Nc1cnc(C2=CC[C@@H](N(C)C(=O)Nc3cc(C(F)(F)F)cn(C)c3=O)CC2)cn1` [Example I-140-a, (S)—N-(5-(4-(1-methyl-3-(1-methyl-2-oxo-5-(trifluoromethyl)-1,2-dihydropyridin-3-yl)ureido)cyclohex-1-en-1-yl)pyrazin-2-yl)acetamide], the equilibrium dissociation constant (Kd) was less than 10 nM.
Molecule `CO[C@H]1CN(c2cnc3[nH]cc(C)c3n2)CC[C@@H]1N(C)C(=O)Nc1cc(C(F)(F)F)cn(C)c1=O` [Example I-118-b, 1-((3S,4S)-3-methoxy-1-(7-methyl-5H-pyrrolo[2,3-b]pyrazin-2-yl)piperidin-4-yl)-1-methyl-3-(1-methyl-2-oxo-5-(trifluoromethyl)-1,2-dihydropyridin-3-yl)urea] had an equilibrium dissociation constant (Kd) of 50 to 1000 nM.
As for `COCCOc1n[nH]c2ncc(C34CC(N(C)C(=O)Nc5cc(C(F)(F)F)cn(C)c5=O)(C3)C4)cc12` [Example I-157, 1-(3-(3-(2-methoxyethoxy)-1H-pyrazolo[3,4-b]pyridin-5-yl)bicyclo[1.1.1]pentan-1-yl)-1-methyl-3-(1-methyl-2-oxo-5-(trifluoromethyl)-1,2-dihydropyridin-3-yl)urea], the figure is less than 10 nM.
As for `CN(C(=O)Nc1cc(C(F)(F)F)cn(C)c1=O)C1CCN(c2cnc3[nH]cc(C4CC4)c3n2)CC1` [Example I-40, 1-(1-(7-cyclopropyl-5H-pyrrolo[2,3-b]pyrazin-2-yl)piperidin-4-yl)-1-methyl-3-(1-methyl-2-oxo-5-(trifluoromethyl)-1,2-dihydropyridin-3-yl)urea], the figure is less than 10 nM; as for `CC(=O)Nc1cnc(N2CCC(N(C)C(=O)Nc3cc(C)cc(C(F)(F)F)c3)CC2)cn1` [Example I-13, N-(5-(4-(1-methyl-3-(3-methyl-5-(trifluoromethyl)phenyl)ureido)piperidin-1-yl)pyrazin-2-yl)acetamide], less than 10 nM; as for `C[C@H]1CN(c2cnc3[nH]ncc3c2)CC[C@@H]1N(C)C(=O)Nc1cc(C(F)(F)F)cn(C)c1=O` [Example I-74-a, 1-methyl-1-((3S,4S)-3-methyl-1-(1H-pyrazolo[3,4-b]pyridin-5-yl)piperidin-4-yl)-3-(1-methyl-2-oxo-5-(trifluoromethyl)-1,2-dihydropyridin-3-yl)urea], less than 10 nM.
As for `CN(C(=O)Nc1cc(C(F)(F)F)cn(C)c1=O)[C@@H]1CCN(c2cnc(NC(=O)C3CC3)cn2)CC1(F)F` (single isomer, unassigned) [Example I-34-a], the figure is less than 10 nM; as for `COc1c[nH]c2ncc(N3CC[C@@H](N(C)C(=O)Nc4cc(C(F)(F)F)cn(C)c4=O)[C@H](F)C3)nc12` [Example I-150, 1-((3R,4R)-3-fluoro-1-(7-methoxy-5H-pyrrolo[2,3-b]pyrazin-2-yl)piperidin-4-yl)-1-methyl-3-(1-methyl-2-oxo-5-(trifluoromethyl)-1,2-dihydropyridin-3-yl)urea], less than 10 nM.
In turn, `CNc1n[nH]c2ncc(N3CC[C@@H](N(C)C(=O)Nc4cc(C(F)(F)F)cn(C)c4=O)C(F)(F)C3)cc12` [Example I-125-a, (R)-1-(3,3-difluoro-1-(3-(methylamino)-1H-pyrazolo[3,4-b]pyridin-5-yl)piperidin-4-yl)-1-methyl-3-(1-methyl-2-oxo-5-(trifluoromethyl)-1,2-dihydropyridin-3-yl)urea] gave a Kd of less than 10 nM.
As for `Cn1cc(C(F)(F)F)cc(NC(=O)N(C)[C@H]2CC[C@@H](c3cnc4[nH]cc(N5CCOCC5)c4n3)CC2)c1=O` [Example I-142, cis-1-methyl-3-(1-methyl-2-oxo-5-(trifluoromethyl)-1,2-dihydropyridin-3-yl)-1-(4-(7-morpholino-5H-pyrrolo[2,3-b]pyrazin-2-yl)cyclohexyl)urea], the figure is 50 to 1000 nM.
As for `CN(C(=O)Nc1cc(C(F)(F)F)cn(C)c1=O)C1CCN(c2cnc3[nH]c(=O)[nH]c3c2)CC1` [Example I-76, 1-methyl-3-(1-methyl-2-oxo-5-(trifluoromethyl)-1,2-dihydropyridin-3-yl)-1-(1-(2-oxo-2,3-dihydro-1H-imidazo[4,5-b]pyridin-6-yl)piperidin-4-yl)urea], the figure is less than 10 nM; as for `Cn1cc(C(F)(F)F)cc(NC(=O)N2CCCC23CCN(c2cnc4[nH]cc(F)c4n2)CC3)c1=O` [Example I-52, 8-(7-fluoro-5H-pyrrolo[2,3-b]pyrazin-2-yl)-N-(1-methyl-2-oxo-5-(trifluoromethyl)-1,2-dihydropyridin-3-yl)-1,8-diazaspiro[4.5]decane-1-carboxamide], 50 to 1000 nM; as for `COCCOc1n[nH]c2ncc(N3CC[C@H](N(C)C(=O)Nc4cc(C(F)(F)F)cn(C)c4=O)C[C@@H]3C)cc12` [Example I-132-a, 1-((2S,4S)-1-(3-(2-methoxyethoxy)-1H-pyrazolo[3,4-b]pyridin-5-yl)-2-methylpiperidin-4-yl)-1-methyl-3-(1-methyl-2-oxo-5-(trifluoromethyl)-1,2-dihydropyridin-3-yl)urea], 10 to 50 nM.
As to `Cn1cc(C(F)(F)F)cc(NC(=O)N2CCC23CCN(c2cnc4[nH]ccc4n2)CC3)c1=O` [Example I-67, N-(1-methyl-2-oxo-5-(trifluoromethyl)-1,2-dihydropyridin-3-yl)-7-(5H-pyrrolo[2,3-b]pyrazin-2-yl)-1,7-diazaspiro[3.5]nonane-1-carboxamide], the Kd was 50 to 1000 nM.
As for `COc1n[nH]c2ncc(N3CC[C@H](N(C)C(=O)Nc4cc(C(F)(F)F)cn(C)c4=O)[C@H](F)C3)cc12` [Example I-87-b, 1-((3R,4S)-3-fluoro-1-(3-methoxy-1H-pyrazolo[3,4-b]pyridin-5-yl)piperidin-4-yl)-1-methyl-3-(1-methyl-2-oxo-5-(trifluoromethyl)-1,2-dihydropyridin-3-yl)urea], the figure is less than 10 nM; as for `CN(C(=O)Nc1cc(C(F)(F)F)cn(C)c1=O)[C@@H]1CCN(c2cnc3[nH]nc(OC[C@H]4COCCO4)c3c2)C[C@@H]1F` [Example I-102-a, 1-((3S,4R)-1-(3-(((R)-1,4-dioxan-2-yl)methoxy)-1H-pyrazolo[3,4-b]pyridin-5-yl)-3-fluoropiperidin-4-yl)-1-methyl-3-(1-methyl-2-oxo-5-(trifluoromethyl)-1,2-dihydropyridin-3-yl)urea], less than 10 nM.
As for `CN(C(=O)Nc1cc(C(F)(F)F)cn(C)c1=O)[C@H]1CCN(c2cnc3[nH]ccc3n2)CC1(F)F` (single isomer, unassigned) [Example I-27-b], the figure is less than 10 nM; as for “1-(1-(3-((1R,2R)-2-hydroxycyclobutoxy)-1H-pyrazolo[3,4-b]pyridin-5-yl)piperidin-4-yl)-1-methyl-3-(1-methyl-2-oxo-5-(trifluoromethyl)-1,2-dihydropyridin-3-yl)urea and 1-(1-(3-((1S,2S)-2-hydroxycyclobutoxy)-1H-pyrazolo[3,4-b]pyridin-5-yl)piperidin-4-yl)-1-methyl-3-(1-methyl-2-oxo-5-(trifluoromethyl)-1,2-dihydropyridin-3-yl)urea [Example I-184-b]”, 1000 to 5000 nM; as for `Cc1cc(NC(=O)C2(C3CCN(c4cnccn4)CC3)CC2)cc(C(F)(F)F)c1` [Example I-4, N-(3-methyl-5-(trifluoromethyl)phenyl)-1-(1-(pyrazin-2-yl)piperidin-4-yl)cyclopropane-1-carboxamide], 50 to 1000 nM.

What is called Kd is the equilibrium constant for the complex coming apart. A higher Kd goes with lower affinity.
